From patent publication US7074789B2, “Kinase inhibitors” (Amgen Inc., priority 1999, dated 2006)

What was measured:
Format in all cases: biochemical
[1] = target: T1, AKT (Homo sapiens, UniProt Q9Y243); assay: Kinase inhibition assay (33P transfer), AKT; conditions: Table 2, kinase inhibition class; read-out: AKT3-1
T1 construct: Kinases are expressed as either kinase domains or full length constructs; made in house
Summary of the method: (§1)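 GST/His-tagged kinase (domain or full length; E. coli or baculovirus) + [33P]ATP on plates coated with poly(Glu,Tyr) 4:1 or poly(Arg,Ser) 3:1; incubate, wash 0.5% H3PO4, add scintillant, count.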

[2] = target: T2, Lyn (Homo sapiens, UniProt P07948); assay: Kinase inhibition assay (33P transfer), Lyn; conditions: Table 6, Lyn-1 kinase inhibition class
T2 construct: Kinases are expressed as either kinase domains or full length constructs; made in house
Summary of the method: (§2)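 Kinase domains or full-length enzymes, GST- or polyHis-tagged, were expressed in E. coli or baculovirus High Five cells and affinity-purified. Transfer of 33PO4 from ATP onto plate-bound poly(Glu,Tyr) 4:1 or poly(Arg,Ser) 3:1 was counted by liquid scintillation after a 0.5% phosphoric acid wash. IC50 = concentration halving incorporation.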

[3] = target: T3, Ret-1 (Homo sapiens, UniProt P07949); assay: Kinase inhibition assay (33P transfer), Ret; conditions: Table 6, Ret-1 kinase inhibition class
T3 construct: Kinases are expressed as either kinase domains or full length constructs; made in house

[4] = target: T4, Fyn (Homo sapiens, UniProt P06241); assay: Kinase inhibition assay (33P transfer), Fyn; conditions: read-out: Fyn-1
T4 construct: Kinases are expressed as either kinase domains or full length constructs; made in house
Summary of the method: as §2

[5] = target: T5, FGFR1 (Homo sapiens, UniProt P11362); assay: Kinase inhibition assay (33P transfer), FGFR1; conditions: read-out: FGFR1-1
T5 construct: Kinases are expressed as either kinase domains or full length constructs; made in house

[6] = target: T6, ErbB4 (Homo sapiens, UniProt Q15303); assay: Kinase inhibition assay (33P transfer), ErbB4; conditions: read-out: ErbB4-1
T6 construct: Kinases are expressed as either kinase domains or full length constructs; made in house

[7] = target: T7, Flt-1 (Homo sapiens, UniProt P17948); assay: Kinase inhibition assay (33P transfer), Flt-1
T7 construct: Kinases are expressed as either kinase domains or full length constructs; made in house
Summary of the method: as §2

[8] = target: T8, Lck (Homo sapiens, UniProt P06239); assay: Kinase inhibition assay (33P transfer), Lck; conditions: read-out: Lck-1
T8 construct: Kinases are expressed as either kinase domains or full length constructs; made in house
Summary of the method: as §1

[9] = target: T9, EGFR (Homo sapiens, UniProt P00533); assay: Kinase inhibition assay (33P transfer), EGFR; conditions: Table 2, kinase inhibition class; read-out: EGFR-1
T9 construct: Kinases are expressed as either kinase domains or full length constructs; made in house
Summary of the method: as §2

[10] = target: T10, Kdr (Homo sapiens, UniProt P35968); assay: Kinase inhibition assay (33P transfer), Kdr; conditions: read-out: KDR-1
T10 construct: Kinases are expressed as either kinase domains or full length constructs; made in house
Summary of the method: as §1

[11] = target: T11, Hck-1 (Homo sapiens, UniProt P08631); assay: Kinase inhibition assay (33P transfer), Hck; conditions: Table 6, Hck-1 kinase inhibition class
T11 construct: Kinases are expressed as either kinase domains or full length constructs; made in house

[12] = target: T12, Zap-70 (Homo sapiens, UniProt P43403); assay: Kinase inhibition assay (33P transfer), Zap-70; conditions: read-out: Zap-1
T12 construct: Kinases are expressed as either kinase domains or full length constructs; made in house
T12 sequence (P43403 1-619): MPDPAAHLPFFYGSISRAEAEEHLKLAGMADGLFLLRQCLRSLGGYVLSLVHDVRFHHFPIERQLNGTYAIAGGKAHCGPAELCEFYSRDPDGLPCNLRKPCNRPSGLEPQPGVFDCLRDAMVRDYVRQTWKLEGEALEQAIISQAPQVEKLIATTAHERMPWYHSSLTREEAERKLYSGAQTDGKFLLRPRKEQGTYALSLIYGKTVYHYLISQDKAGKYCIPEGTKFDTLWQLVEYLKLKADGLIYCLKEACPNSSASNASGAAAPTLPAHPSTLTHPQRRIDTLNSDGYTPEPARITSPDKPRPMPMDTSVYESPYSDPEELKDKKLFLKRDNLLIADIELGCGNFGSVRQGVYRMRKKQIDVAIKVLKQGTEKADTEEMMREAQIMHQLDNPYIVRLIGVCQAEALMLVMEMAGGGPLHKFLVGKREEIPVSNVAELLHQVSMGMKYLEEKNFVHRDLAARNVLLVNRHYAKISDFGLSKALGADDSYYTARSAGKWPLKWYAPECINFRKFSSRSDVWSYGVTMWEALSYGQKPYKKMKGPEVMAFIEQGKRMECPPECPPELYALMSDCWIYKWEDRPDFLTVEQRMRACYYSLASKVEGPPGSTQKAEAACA
Summary of the method: as §1

[13] = target: T13, Src (Homo sapiens, UniProt P12931); assay: Kinase inhibition assay (33P transfer), Src; conditions: Table 6, Src-1 kinase inhibition class
T13 construct: Kinases are expressed as either kinase domains or full length constructs; made in house
Summary of the method: as §2

[14] = target: T14, PDGFRB (Homo sapiens, UniProt P09619); assay: Kinase inhibition assay (33P transfer), PDGFRB; conditions: read-out: PDGFRB-1
T14 construct: Kinases are expressed as either kinase domains or full length constructs; made in house

[15] = target: T15, IGFR-1 (Homo sapiens, UniProt P08069); assay: Kinase inhibition assay, IGFR-1 (Table 2); conditions: Table 2, kinase inhibition class
T15 construct: Kinases are expressed as either kinase domains or full length constructs; made in house

[16] = target: T16, ErbB2 (Homo sapiens, UniProt P04626); assay: Kinase inhibition assay (33P transfer), ErbB2; conditions: read-out: ErbB2-2
T16 construct: Kinases are expressed as either kinase domains or full length constructs; made in house
Summary of the method: as §2

[17] = target: T17, c-Met (Homo sapiens, UniProt P08581); assay: Kinase inhibition assay (33P transfer), c-Met; conditions: Table 2, kinase inhibition class; read-out: Met-1
T17 construct: Kinases are expressed as either kinase domains or full length constructs; made in house
Summary of the method: as §2

[18] = target: T18, Itk (Homo sapiens, UniProt Q08881); assay: Kinase inhibition assay (33P transfer), Itk; conditions: read-out: Itk-1
T18 construct: Kinases are expressed as either kinase domains or full length constructs; made in house
T18 sequence (Q08881 1-620): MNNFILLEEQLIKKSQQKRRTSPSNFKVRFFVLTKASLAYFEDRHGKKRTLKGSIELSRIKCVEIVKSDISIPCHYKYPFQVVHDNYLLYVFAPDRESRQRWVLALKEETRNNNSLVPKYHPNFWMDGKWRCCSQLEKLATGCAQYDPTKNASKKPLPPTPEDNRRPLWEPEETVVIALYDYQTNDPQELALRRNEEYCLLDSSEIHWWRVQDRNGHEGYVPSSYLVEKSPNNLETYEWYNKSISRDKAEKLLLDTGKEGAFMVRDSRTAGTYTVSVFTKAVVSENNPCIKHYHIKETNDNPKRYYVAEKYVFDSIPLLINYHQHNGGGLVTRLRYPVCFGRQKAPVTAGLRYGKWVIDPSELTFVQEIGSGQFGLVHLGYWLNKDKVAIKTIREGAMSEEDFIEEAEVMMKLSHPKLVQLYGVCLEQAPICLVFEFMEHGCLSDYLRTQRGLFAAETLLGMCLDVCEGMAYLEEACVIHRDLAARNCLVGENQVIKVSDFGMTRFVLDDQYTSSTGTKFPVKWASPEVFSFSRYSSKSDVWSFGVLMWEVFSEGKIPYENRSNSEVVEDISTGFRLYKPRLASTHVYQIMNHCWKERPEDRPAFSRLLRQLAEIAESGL
Summary of the method: as §2

[19] = target: T19, Tek (Homo sapiens, UniProt Q02763); assay: Kinase inhibition assay (33P transfer), Tek; conditions: read-out: Tek-1
T19 construct: Kinases are expressed as either kinase domains or full length constructs; made in house
Summary of the method: as §2

T11 sequence (P08631 whole entry, the tested form may be a part): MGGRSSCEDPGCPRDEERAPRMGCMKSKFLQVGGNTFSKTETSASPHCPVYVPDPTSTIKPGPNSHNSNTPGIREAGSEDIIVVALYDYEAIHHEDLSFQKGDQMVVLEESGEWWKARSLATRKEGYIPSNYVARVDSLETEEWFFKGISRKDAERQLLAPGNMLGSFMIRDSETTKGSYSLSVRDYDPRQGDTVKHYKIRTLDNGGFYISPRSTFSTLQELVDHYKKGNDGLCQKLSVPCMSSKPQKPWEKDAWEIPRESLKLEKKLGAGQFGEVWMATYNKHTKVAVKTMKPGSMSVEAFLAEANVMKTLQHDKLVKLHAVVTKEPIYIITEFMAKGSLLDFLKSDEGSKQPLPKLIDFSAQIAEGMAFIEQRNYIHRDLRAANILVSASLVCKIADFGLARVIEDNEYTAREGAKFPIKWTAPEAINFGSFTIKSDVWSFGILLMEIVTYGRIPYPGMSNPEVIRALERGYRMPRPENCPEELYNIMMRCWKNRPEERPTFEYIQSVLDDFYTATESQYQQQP
T7 sequence (P17948 27-1338, species assumed): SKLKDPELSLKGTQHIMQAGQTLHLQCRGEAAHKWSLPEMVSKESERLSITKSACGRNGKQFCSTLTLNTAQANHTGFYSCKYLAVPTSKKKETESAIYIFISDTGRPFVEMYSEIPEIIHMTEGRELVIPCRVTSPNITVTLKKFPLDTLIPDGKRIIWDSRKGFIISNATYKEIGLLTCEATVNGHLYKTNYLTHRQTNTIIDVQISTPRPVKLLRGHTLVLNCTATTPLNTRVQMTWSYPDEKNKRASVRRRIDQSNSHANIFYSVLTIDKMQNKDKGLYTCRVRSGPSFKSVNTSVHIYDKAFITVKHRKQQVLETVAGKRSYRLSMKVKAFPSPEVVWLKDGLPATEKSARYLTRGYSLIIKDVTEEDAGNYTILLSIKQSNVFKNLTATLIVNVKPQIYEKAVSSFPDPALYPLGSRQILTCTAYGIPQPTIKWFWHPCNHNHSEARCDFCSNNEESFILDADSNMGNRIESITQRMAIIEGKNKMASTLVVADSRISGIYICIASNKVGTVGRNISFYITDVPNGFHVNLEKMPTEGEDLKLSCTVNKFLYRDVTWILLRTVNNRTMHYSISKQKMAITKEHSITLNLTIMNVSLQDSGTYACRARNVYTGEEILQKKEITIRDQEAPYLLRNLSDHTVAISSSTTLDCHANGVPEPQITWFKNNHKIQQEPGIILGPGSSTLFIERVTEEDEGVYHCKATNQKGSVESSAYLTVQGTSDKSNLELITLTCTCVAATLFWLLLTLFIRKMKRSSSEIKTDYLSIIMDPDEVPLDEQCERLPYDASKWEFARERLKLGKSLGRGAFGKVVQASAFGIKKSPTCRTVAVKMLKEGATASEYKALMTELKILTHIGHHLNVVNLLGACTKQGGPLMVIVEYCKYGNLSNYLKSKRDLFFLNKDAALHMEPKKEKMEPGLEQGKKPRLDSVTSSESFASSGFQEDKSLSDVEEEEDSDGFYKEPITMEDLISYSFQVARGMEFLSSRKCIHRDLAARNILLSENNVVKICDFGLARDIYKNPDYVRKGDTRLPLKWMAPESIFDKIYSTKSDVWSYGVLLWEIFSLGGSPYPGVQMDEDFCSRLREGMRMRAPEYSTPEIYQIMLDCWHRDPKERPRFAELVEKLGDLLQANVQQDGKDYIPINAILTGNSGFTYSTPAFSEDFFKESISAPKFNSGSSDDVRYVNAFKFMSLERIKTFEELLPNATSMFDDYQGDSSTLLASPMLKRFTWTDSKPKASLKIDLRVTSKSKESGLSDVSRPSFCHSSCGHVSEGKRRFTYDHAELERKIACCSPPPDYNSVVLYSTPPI
T14 sequence (P09619 33-1106, species assumed): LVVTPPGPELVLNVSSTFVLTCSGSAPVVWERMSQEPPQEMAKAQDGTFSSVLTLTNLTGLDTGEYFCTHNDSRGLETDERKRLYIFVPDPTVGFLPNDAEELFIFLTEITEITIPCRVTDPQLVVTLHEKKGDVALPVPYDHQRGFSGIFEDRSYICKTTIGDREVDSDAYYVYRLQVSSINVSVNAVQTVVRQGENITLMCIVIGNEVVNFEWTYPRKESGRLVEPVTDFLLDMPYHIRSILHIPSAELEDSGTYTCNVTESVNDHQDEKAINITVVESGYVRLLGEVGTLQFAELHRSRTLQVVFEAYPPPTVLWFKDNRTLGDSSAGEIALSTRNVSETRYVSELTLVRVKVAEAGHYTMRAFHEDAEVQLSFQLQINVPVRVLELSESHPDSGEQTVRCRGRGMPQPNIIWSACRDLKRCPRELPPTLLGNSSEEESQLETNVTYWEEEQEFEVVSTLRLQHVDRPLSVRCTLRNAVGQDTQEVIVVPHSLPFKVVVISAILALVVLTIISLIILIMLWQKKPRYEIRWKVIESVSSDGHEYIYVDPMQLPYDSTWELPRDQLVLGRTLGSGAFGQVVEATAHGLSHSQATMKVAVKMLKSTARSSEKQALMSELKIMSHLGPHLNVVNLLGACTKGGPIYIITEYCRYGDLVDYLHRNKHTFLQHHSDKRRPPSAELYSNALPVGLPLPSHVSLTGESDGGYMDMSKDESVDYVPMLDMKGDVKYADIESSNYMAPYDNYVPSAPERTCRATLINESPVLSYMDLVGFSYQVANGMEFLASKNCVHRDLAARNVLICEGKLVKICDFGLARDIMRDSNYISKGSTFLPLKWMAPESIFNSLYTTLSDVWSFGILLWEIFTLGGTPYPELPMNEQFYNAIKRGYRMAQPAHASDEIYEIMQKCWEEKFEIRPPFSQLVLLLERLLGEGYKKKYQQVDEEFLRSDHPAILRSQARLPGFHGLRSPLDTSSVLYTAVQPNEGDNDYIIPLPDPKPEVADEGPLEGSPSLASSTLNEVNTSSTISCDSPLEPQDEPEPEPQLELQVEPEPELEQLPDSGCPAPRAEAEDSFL
T16 sequence (P04626 23-1255, species assumed): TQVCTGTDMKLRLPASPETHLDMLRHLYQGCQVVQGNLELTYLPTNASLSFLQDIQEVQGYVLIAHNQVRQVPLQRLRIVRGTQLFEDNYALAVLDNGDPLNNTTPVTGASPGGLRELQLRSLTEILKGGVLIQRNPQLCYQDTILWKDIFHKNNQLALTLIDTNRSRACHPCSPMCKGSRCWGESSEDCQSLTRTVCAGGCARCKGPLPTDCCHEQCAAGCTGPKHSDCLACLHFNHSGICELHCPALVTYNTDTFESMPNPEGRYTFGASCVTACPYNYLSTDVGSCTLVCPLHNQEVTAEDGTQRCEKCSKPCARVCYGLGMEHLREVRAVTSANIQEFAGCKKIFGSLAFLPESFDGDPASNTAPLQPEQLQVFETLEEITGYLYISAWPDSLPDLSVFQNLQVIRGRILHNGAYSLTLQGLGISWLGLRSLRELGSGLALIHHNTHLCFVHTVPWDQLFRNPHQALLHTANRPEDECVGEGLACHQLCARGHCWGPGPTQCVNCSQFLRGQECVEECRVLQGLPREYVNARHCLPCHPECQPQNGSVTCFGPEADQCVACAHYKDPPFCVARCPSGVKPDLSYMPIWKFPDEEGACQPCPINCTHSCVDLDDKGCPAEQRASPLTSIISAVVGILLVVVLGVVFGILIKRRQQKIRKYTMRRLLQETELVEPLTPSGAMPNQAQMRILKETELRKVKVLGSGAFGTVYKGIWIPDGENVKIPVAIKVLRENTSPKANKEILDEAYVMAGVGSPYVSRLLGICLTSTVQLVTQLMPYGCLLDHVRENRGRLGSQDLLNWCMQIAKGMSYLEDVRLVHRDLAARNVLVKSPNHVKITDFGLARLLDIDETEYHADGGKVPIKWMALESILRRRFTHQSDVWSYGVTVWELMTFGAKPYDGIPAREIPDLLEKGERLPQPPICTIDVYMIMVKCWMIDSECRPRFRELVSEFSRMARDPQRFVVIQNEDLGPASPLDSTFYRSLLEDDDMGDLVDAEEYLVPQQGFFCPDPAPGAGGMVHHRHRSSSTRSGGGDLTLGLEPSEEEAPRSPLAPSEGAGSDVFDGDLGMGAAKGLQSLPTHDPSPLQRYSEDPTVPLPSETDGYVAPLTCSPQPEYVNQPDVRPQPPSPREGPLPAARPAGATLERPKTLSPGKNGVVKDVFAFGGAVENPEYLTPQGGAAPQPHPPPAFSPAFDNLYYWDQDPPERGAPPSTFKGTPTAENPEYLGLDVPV
T8 sequence (P06239 whole entry, species assumed, the tested form may be a part): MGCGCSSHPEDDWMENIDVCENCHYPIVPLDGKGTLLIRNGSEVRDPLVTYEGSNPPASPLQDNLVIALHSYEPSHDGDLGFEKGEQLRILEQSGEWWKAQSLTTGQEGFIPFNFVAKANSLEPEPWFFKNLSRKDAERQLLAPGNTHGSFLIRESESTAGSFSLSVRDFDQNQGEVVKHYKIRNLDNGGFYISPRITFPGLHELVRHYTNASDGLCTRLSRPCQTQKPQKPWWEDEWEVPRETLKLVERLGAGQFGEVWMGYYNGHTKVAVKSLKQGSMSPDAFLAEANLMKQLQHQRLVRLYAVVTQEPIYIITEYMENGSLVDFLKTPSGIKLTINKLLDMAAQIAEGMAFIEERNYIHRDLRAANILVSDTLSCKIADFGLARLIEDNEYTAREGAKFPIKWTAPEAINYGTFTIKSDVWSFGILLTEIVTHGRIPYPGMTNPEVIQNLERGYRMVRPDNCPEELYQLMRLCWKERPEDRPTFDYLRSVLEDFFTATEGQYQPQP

Compound	IC50 [1]	IC50 [2]	IC50 [3]	IC50 [4]	IC50 [5]	IC50 [6]	IC50 [7]	IC50 [8]	IC50 [9]	IC50 [10]	IC50 [11]	IC50 [12]	IC50 [13]	IC50 [14]	IC50 [15]	IC50 [16]	IC50 [17]	IC50 [18]	IC50 [19]
COc1cc(Nc2ncnc(-n3c(NCc4ccccc4F)nc4ccccc43)n2)cc(OC)c1OC [Compound 512]	> 8.97 µM	< 0.798 µM	< 0.798 µM	> 8.97 µM	< 0.798 µM	0.798 to 4.79 µM	0.798 to 4.79 µM	0.798 to 4.79 µM	> 8.97 µM	< 0.798 µM	> 8.97 µM	> 8.97 µM	> 8.97 µM	< 0.798 µM	> 8.97 µM	4.79 to 6.98 µM	> 8.97 µM	> 8.97 µM	> 8.97 µM
C=CCNc1ncccc1-c1ncnc(Nc2cc(OC)c(OC)c(OC)c2)n1 [Compound 1076]	> 11.4 µM	> 11.4 µM	< 1.01 µM	1.01 to 6.08 µM	1.01 to 6.08 µM	> 11.4 µM	1.01 to 6.08 µM	< 1.01 µM	> 11.4 µM	< 1.01 µM	> 11.4 µM	> 11.4 µM	1.01 to 6.08 µM	< 1.01 µM	> 11.4 µM	> 11.4 µM	> 11.4 µM	> 11.4 µM	> 11.4 µM
COc1cc(Nc2ncnc(-n3c(NCCc4ccccn4)nc4ccccc43)n2)cc(OC)c1OC [Compound 510]	> 9.03 µM	> 9.03 µM	0.802 to 4.81 µM	> 9.03 µM	0.802 to 4.81 µM	> 9.03 µM	0.802 to 4.81 µM	0.802 to 4.81 µM	> 9.03 µM	< 0.802 µM	> 9.03 µM	> 9.03 µM	> 9.03 µM	4.81 to 7.02 µM	> 9.03 µM	> 9.03 µM	> 9.03 µM	0.802 to 4.81 µM	> 9.03 µM
COc1cc(Nc2ncnc(-n3c(NCc4cccc(Br)c4)nc4ccccc43)n2)cc(OC)c1OC [Compound 946]	> 8 µM	< 0.711 µM	0.711 to 4.27 µM	> 8 µM	< 0.711 µM	> 8 µM	0.711 to 4.27 µM	0.711 to 4.27 µM	6.22 to 8 µM	0.711 to 4.27 µM	> 8 µM	> 8 µM	> 8 µM	< 0.711 µM	4.27 to 6.22 µM	> 8 µM	6.22 to 8 µM	> 8 µM	> 8 µM
COc1cc(Nc2ncnc(N(C)c3ccc(Cl)cc3)n2)cc(OC)c1OC [Compound 616]	> 11.2 µM	0.995 to 5.97 µM	< 0.995 µM	0.995 to 5.97 µM	0.995 to 5.97 µM	0.995 to 5.97 µM	0.995 to 5.97 µM	< 0.995 µM	< 0.995 µM	< 0.995 µM	5.97 to 8.71 µM	> 11.2 µM	< 0.995 µM	< 0.995 µM	0.995 to 5.97 µM	0.995 to 5.97 µM	< 0.995 µM	> 11.2 µM	0.995 to 5.97 µM
